Test results taken from the NIST ThermoML archive (doi:10.1021/je0340755).

Assay: xn = mol fraction of the nth substance listed
Details: 101.3 kPa, Liquid; for viscosity: Capillary tube (Ostwald / Ubbelohde) method

CC(O)C(C)O (stereo unspecified) [2,3-butanediol] + O
Details | mass density, 328.15 K [kg/m3] | mass density, 338.15 K [kg/m3] | speed of sound, 328.15 K [m/s] | speed of sound, 338.15 K [m/s] | viscosity, 338.15 K [mPa·s]
x2 = 0.0546 | – | 963.14 | – | 1379 | 4.899
x2 = 0.1435 | – | 965.14 | – | 1394.6 | 4.365
x2 = 0.2458 | – | 967.72 | – | 1410.6 | 3.722
x2 = 0.3539 | – | 970.91 | – | 1433.2 | 3.054
x2 = 0.4502 | – | 974.25 | – | 1457.5 | 2.49
x2 = 0.4989 | – | 976.14 | – | 1468.9 | 2.221
x2 = 0.5503 | – | 978.26 | – | 1482.2 | 1.951
x2 = 0.6581 | – | 982.97 | – | 1510.5 | 1.447
x2 = 0.7518 | – | 986.9 | – | 1540 | 1.089
x2 = 0.8626 | – | 989.57 | – | 1573.7 | 0.768
x2 = 0.9092 | – | 988.99 | – | 1577.3 | 0.656
x2 = 0.9148 | – | 988.8 | – | 1576 | 0.644
x2 = 0.9248 | – | 988.39 | – | 1576.1 | 0.621
x2 = 0.9305 | – | 988.1 | – | 1572.2 | 0.608
x2 = 0.935 | – | 987.85 | 1570.1 | 1559.7 | 0.598
x2 = 0.9452 | 993.9 | 987.18 | 1574.2 | 1564.6 | 0.573
x2 = 0.9542 | 992.98 | 986.46 | 1573 | 1566.2 | 0.552
x2 = 0.9703 | 990.96 | 984.86 | 1570.4 | 1566.1 | 0.513
x2 = 0.98 | 989.48 | 983.67 | 1561.6 | 1561.3 | 0.49
x2 = 0.9903 | 987.67 | 982.18 | 1553.7 | 1556.6 | 0.463
x2 = 0.9925 | 987.24 | 981.83 | 1551.3 | 1555.4 | 0.458
x2 = 0.9951 | 986.72 | 981.4 | 1548.3 | 1552.7 | 0.451
